The record followed here is patent US10653693B2, “PRMT5 inhibitors and uses thereof” (Epizyme, Inc., priority 2014, dated 2020).

In general, IC50 refers to the midpoint of a concentration-inhibition curve. By IC90 is commonly meant the point of the concentration-response curve where the effect stands at 90%.

Read-outs that look alike come from different tables or passages of the source.

Data set [1] can be described thus: Body weight loss in Z-138 xenograft study. The data set is classed as in vivo. The following applies: 21 days. As to the method: (§1) Data presented in this example were determined after analysis of 21 day samples of mantle cell lymphoma tumors. Cmin PK samples were taken prior to the last dose on day 21. Tumors were excised, weighed and processed for methyl mark. Methyl mark reduction was measured in tumor samples and is shown as percent of vehicle control (POC). Both SYM11 and sDMA Elisa were used to measure methyl mark and the data shown is averaged from 10 animals. Tumor growth inhibition was determined using tumor volume reduction at day 21 expressed as a percent of POC. In vivo inhibition curves were also generated and IC50 values determined. Plasma levels from each group are averaged from 5 animals. […] The average body weight loss (BWL) in all groups was <6%. All doses tested show >50% TGI. […] The average BWL in all groups was <4%. The average BWL in all groups was <8%, except in the 100 mg/kg does group were 4 animals exceeded BWL of 15%.

Data set [2] deals with cellular methylation (symmetric di-methyl arginine) in Z-138 cells. Briefly: In Cell Western (ICW) methylation assay, SYM11 antibody. The data set is classed as cell-based. The following applies: Homo sapiens, 96 h, 4 days of treatment, n=1. The protocol: Percent inhibition was determined and IC50 curves were generated using triplicate wells per concentration of compound. IC50 values were calculated using GraphPad Prism using a 4-parametric fit of the normalized dose response curves with the top fixed to 100%. Z-138 suspension cells were purchased from ATCC (American Type Culture Collection, Manassas, Va.). RPMI/Glutamax medium, penicillin-streptomycin, heat inactivated fetal bovine serum, and D-PBS were purchased from Life Technologies, Grand Island, N.Y., USA. Odyssey blocking buffer, 800CW goat anti-rabbit IgG (H+L) antibody, and Licor Odyssey infrared scanner were purchased from Licor Biosciences, Lincoln, Nebr., USA. Symmetric di-methyl arginine antibody was purchased from EMD Millipore, Billerica, Mass., USA. 16% Paraformaldehyde was purchased from Electron Microscopy Sciences, Hatfield, Pa., USA. Z-138 suspension cells were maintained in growth medium (RPMI 1640 supplemented with 10% v/v heat inactivated fetal bovine serum and 100 units/mL penicillin-streptomycin) and cultured at 37° C. under 5% CO2. […] The average of the ratio values for each control type was calculated and used to determine the percent inhibition for each test well in the plate. […] Percent inhibition was determined and IC50 curves were generated using triplicate wells per concentration of compound. […]

Another data set has as its system Maver-1 xenograft model. Briefly: 21 day mantle cell lymphoma xenograft study: TGI and tumor methyl mark. Format: in vivo. The following applies: all doses tested, day 21. The protocol: as §1
The next data set deals with Jeko-1. Briefly: Long-term proliferation (LTP) assay. Format: cell-based. The following applies: Homo sapiens.
A short description of data set [3]: Body weight loss in Maver-1 xenograft study. Format: in vivo. The following applies: 21 days. The protocol: as §1
In the next data set the test system is Z138. Nature of the data set: Cell cycle analysis (propidium iodide staining, FACS). Format: cell-based, Human. The note with it: 3 days. The protocol:
Cells were seeded in 6-well tissue culture dishes in a volume of 3 mL IMDM+10% horse serum (supplemented with 0.5 μg/mL puromycin for transduced cell lines). Cells were treated with DMSO, 10 nM Formula C, or 200 nM Formula C for 3 days. Cells were harvested by centrifuging at 2,000 RPM for 5 minutes, washing with PBS, washing with citrate buffer, then aspirating excess citrate buffer to leave approximately 50 μL remaining above pellet. Pellets were frozen at −80° C. until ready to process.
Pellets were propidium iodide-stained for FACS using the Becton Dickinson CycleTEST PLUS kit (cat. #340242). Solutions A, B, and C of the kit were thawed and then kept on ice. Cell pellets were thawed rapidly at 37° C. and pipetted up and down to resuspend in 50 μL of citrate buffer.
Approximately one quarter of the cell pellet volume was transferred to a fresh Eppendorf tube. 250 μL of solution A was added to each sample and then inverted 7 to 10 times. Samples were placed on a shaker at 150 RPM for 10 minutes at room temperature. Samples were on ice when not shaking. 250 μL of solution B and 250 μL of solution C were added to each sample in the same fashion. […]
Samples were processed by FACS on a Becton Dickinson FACSCalibur machine. The percentage of cells in each cell cycle stage was determined using the cell cycle function on the gated single cell population with FlowJo V10 software.

Consider `CC(=O)N1CCC(Nc2cc(C(=O)NC[C@H](O)CN3CCc4ccccc4C3)ccn2)CC1` [Formula B], for which the figures for the “average body weight loss (BWL) in all groups” value in data set [1] and in data set [3] were < 6% and < 4%, respectively. For the same compound, the IC50 in data set [2] was 0.64 nM; with Jeko-1 (264 h, 11-day treatment, N = 1, read-out: Formula B LTP IC50) it was 14 nM; in the data set on Jeko-1 (Table 3, read-out: LTP IC50) it was 5.2 nM. In addition, in the data set with Maver-1 xenograft model, the “Tumor growth inhibition (TGI)” value was > 50%. Besides, in the data set with Jeko-1 (264 h, 11-day treatment, N = 1, read-out: Formula B LTP IC90), the IC90 was found to be 149 nM.
For `O=C(NC[C@H](O)CN1CCc2ccccc2C1)c1ccnc(NC2CCC2)c1` [Formula C], the cell cycle effect result in the data set on Z138 (10 nM) is recorded as “G1 arrest”; in the data set on Z138 (200 nM) it was “cell death”.
